In patent US10519154B2, “7-substituted 1-pyridyl-naphthyridine-3-carboxylic acid amides and use thereof” (Bayer Pharma Aktiengesellschaft, priority 2016, dated 2019):

Molecular target: T1, human M2 receptor (Homo sapiens, UniProt P08172)
T1 sequence (P08172 1-466): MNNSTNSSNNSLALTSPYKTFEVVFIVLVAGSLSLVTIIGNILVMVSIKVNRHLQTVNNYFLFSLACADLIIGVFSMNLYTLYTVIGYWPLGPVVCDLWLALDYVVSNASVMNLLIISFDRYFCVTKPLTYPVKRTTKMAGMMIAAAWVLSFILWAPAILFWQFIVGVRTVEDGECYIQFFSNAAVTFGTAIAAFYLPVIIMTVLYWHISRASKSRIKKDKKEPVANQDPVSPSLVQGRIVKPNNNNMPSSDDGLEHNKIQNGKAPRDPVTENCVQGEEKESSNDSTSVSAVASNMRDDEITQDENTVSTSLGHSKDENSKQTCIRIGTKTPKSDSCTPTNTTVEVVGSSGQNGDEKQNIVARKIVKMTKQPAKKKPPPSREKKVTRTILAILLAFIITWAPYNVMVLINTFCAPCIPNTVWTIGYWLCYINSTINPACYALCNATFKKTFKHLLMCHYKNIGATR
Assay: Functional M2-GIRK1/4 activation test: allosteric potency (EC50) and efficiency
Conditions: for EC50: Receptor activity EC50, CHO-DUKX-M2-GIRK cells, acetylcholine at EC20, in some cases mean of two or more determinations; for Emax: read-out: Efficiency, boosting of the acetylcholine effect at EC20 acetylcholine concentration; for Emax / Efficiency: CHO-DUKX-M2-GIRK cells; for Efficiency: boosting of the acetylcholine effect at EC20 acetylcholine concentration

Compound	EC50 [nM]	Emax [%]	Efficiency [%]
CC[C@@H](NC(=O)c1cn(-c2ncc(F)cc2F)c2nc(N3C[C@@H](O)[C@@H](O)C3)ccc2c1=O)C(F)(F)F [Example 41, 1-(3,5-Difluoropyridin-2-yl)-7-[(3R,4S)-3,4-dihydroxypyrrolidin-1-yl]-4-oxo-N-[(2R)-1,1,1-trifluorobutan-2-yl]-1,4-dihydro-1,8-naphthyridine-3-carboxamide]	330	100	–
CC[C@H](NC(=O)c1cn(-c2ncc(F)cc2F)c2nc(N3CC(F)C3)ccc2c1=O)C(F)(F)F [Example 132, 1-(3,5-Difluoropyridin-2-yl)-7-(3-fluoroazetidin-1-yl)-4-oxo-N-[(2S)-1,1,1-trifluorobutan-2-yl]-1,4-dihydro-1,8-naphthyridine-3-carboxamide]	325	98	–
O=C(NC(C(F)(F)F)C(F)(F)F)c1cn(-c2ncc(F)cc2F)c2nc(N3CC4CC4(O)C3)ccc2c1=O (racemic) [Example 57, 1-(3,5-Difluoropyridin-2-yl)-N-(1,1,1,3,3,3-hexafluoropropan-2-yl)-7-[1-hydroxy-3-azabicyclo[3.1.0]hex-3-yl]-4-oxo-1,4-dihydro-1,8-naphthyridine-3-carboxamide]	10	94	–
CC[C@@H](NC(=O)c1cn(-c2ncc(F)cc2F)c2nc(N3CC4CC4(O)C3)ccc2c1=O)C(F)(F)F (mixture of isomers) [Example 43, 1-(3,5-Difluoropyridin-2-yl)-7-[1-hydroxy-3-azabicyclo[3.1.0]hex-3-yl]-4-oxo-N-[(2R)-1,1,1-trifluorobutan-2-yl]-1,4-dihydro-1,8-naphthyridine-3-carboxamide]	65	100	–
CC(C)(NC(=O)c1cn(-c2ncc(F)cc2F)c2nc(N3CCC(CO)(CO)CC3)ccc2c1=O)C(F)(F)C(F)(F)F [Example 187]	265	97.5	–
CCC(COC(F)(F)F)NC(=O)c1cn(-c2ncc(F)cc2F)c2nc(N3C[C@@H](C)NC3=O)ccc2c1=O (stereo partly drawn) [Example 141, 1-(3,5-Difluoropyridin-2-yl)-7-[(4R)-4-methyl-2-oxoimidazolidin-1-yl]-4-oxo-N-[1-(trifluoromethoxy)butan-2-yl]-1,4-dihydro-1,8-naphthyridine-3-carboxamide]	18	95	–
O=C(NC(c1ccccc1Cl)C(F)(F)F)c1cn(-c2ncc(F)cc2F)c2nc(N3C[C@@H](O)[C@H](O)C3)ccc2c1=O (single isomer, unassigned) [Example 85]	85	–	99.00
CC(NC(=O)c1cn(-c2ncc(F)cc2F)c2nc(N3CCNC3=O)ccc2c1=O)C(F)(F)C(F)(F)F (single isomer, unassigned) [Example 162, 1-(3,5-Difluoropyridin-2-yl)-4-oxo-7-(2-oxoimidazolidin-1-yl)-N-[3,3,4,4,4-pentafluorobutan-2-yl]-1,4-dihydro-1,8-naphthyridine-3-carboxamide]	24	96	–
O=C(NC(CC(F)(F)F)C(F)(F)F)c1cn(-c2ncc(F)cc2F)c2nc(N3C[C@@H](O)CC3=O)ccc2c1=O (stereo partly drawn) [Example 159, 1-(3,5-Difluoropyridin-2-yl)-N-[1,1,1,4,4,4-hexafluorobutan-2-yl]-7-[(4S)-4-hydroxy-2-oxopyrrolidin-1-yl]-4-oxo-1,4-dihydro-1,8-naphthyridine-3-carboxamide]	94	100	–
CC[C@@H](NC(=O)c1cn(-c2ncc(F)cc2F)c2nc(NCC(F)F)ccc2c1=O)C(F)(F)F [Example 70, 7-[(2,2-Difluoroethyl)amino]-1-(3,5-difluoropyridin-2-yl)-4-oxo-N-[(2R)-1,1,1-trifluorobutan-2-yl]-1,4-dihydro-1,8-naphthyridine-3-carboxamide]	220	91	–
CC(C)(NC(=O)c1cn(-c2ncc(F)cc2F)c2nc(N3CC4(COC4)C3)ccc2c1=O)C(F)(F)C(F)(F)F [Example 182, 1-(3,5-Difluoropyridin-2-yl)-7-(2-oxa-6-azaspiro[3.3]hept-6-yl)-4-oxo-N-(3,3,4,4,4-pentafluoro-2-methylbutan-2-yl)-1,4-dihydro-1,8-naphthyridine-3-carboxamide]	410	100	–
CC(C)(C)[C@@H](NC(=O)c1cn(-c2ncc(F)cc2F)c2nc(N3C[C@@H](O)[C@H](O)C3)ccc2c1=O)C(F)(F)F [Example 86, 1-(3,5-Difluoropyridin-2-yl)-7-[(3R,4R)-3,4-dihydroxypyrrolidin-1-yl]-4-oxo-N-[(2R)-1,1,1-trifluoro-3,3-dimethylbutan-2-yl]-1,4-dihydro-1,8-naphthyridine-3-carboxamide]	19	100	–

Now from value to compound:

EC50 [nM]	Emax [%]	Efficiency [%]	Compound
51	–	99.00	O=C(N[C@H](C1CC1)C(F)(F)F)c1cn(-c2ncc(F)cc2F)c2nc(N3CC4CC4(O)C3)ccc2c1=O (single isomer, unassigned) [Example 39]
35	94	–	CC(NC(=O)c1cn(-c2ncc(F)cc2F)c2nc(N3C[C@@H](O)CC3=O)ccc2c1=O)C(F)(F)C(F)(F)F (mixture of isomers) [Example 76, 1-(3,5-Difluoropyridin-2-yl)-7-[(4S)-4-hydroxy-2-oxopyrrolidin-1-yl]-4-oxo-N-[3,3,4,4,4-pentafluorobutan-2-yl]-1,4-dihydro-1,8-naphthyridine-3-carboxamide]
50	100	–	CC(C)C[C@H](NC(=O)c1cn(-c2ncc(F)cc2F)c2nc(N3CCNC3=O)ccc2c1=O)C(F)(F)F [Example 157, 1-(3,5-Difluoropyridin-2-yl)-4-oxo-7-(2-oxoimidazolidin-1-yl)-N-[(2S)-1,1,1-trifluoro-4-methylpentan-2-yl]-1,4-dihydro-1,8-naphthyridine-3-carboxamide]
135	96	–	CC[C@H](NC(=O)c1cn(-c2ncc(F)cc2F)c2nc(N3CC(O)C(C)C3=O)ccc2c1=O)C(F)(F)F (single isomer, unassigned) [Example 109]
320	99	–	O=C(N[C@H](C1CC1)C(F)(F)F)c1cn(-c2ncc(F)cc2F)c2nc(N3CCN(CCO)C3=O)ccc2c1=O [Example 121, N-[(1R)-1-Cyclopropyl-2,2,2-trifluoroethyl]-1-(3,5-difluoropyridin-2-yl)-7-[3-(2-hydroxyethyl)-2-oxoimidazolidin-1-yl]-4-oxo-1,4-dihydro-1,8-naphthyridine-3-carboxamide]
505	83	–	CC1(C)C(=O)N(c2ccc3c(=O)c(C(=O)N[C@@H](C4CC4)C(F)(F)F)cn(-c4ncc(F)cc4F)c3n2)C2(CC2)C1O (stereo partly drawn) [Example 33, N-[(1S)-1-Cyclopropyl-2,2,2-trifluoroethyl]-1-(3,5-difluoropyridin-2-yl)-7-[7-hydroxy-6,6-dimethyl-5-oxo-4-azaspiro[2.4]hept-4-yl]-4-oxo-1,4-dihydro-1,8-naphthyridine-3-carboxamide]
400	89.5	–	CC1(C)C(=O)N(c2ccc3c(=O)c(C(=O)N[C@H](C4CC4)C(F)(F)F)cn(-c4ncc(F)cc4F)c3n2)C2(CC2)C1O (stereo partly drawn) [Example 32]
14	100	–	CC(C)C[C@@H](NC(=O)c1cn(-c2ncc(F)cc2F)c2nc(N3C[C@@H](O)CC3=O)ccc2c1=O)C(F)(F)F [Example 74, 1-(3,5-Difluoropyridin-2-yl)-7-[(4S)-4-hydroxy-2-oxopyrrolidin-1-yl]-4-oxo-N-[(2R)-1,1,1-trifluoro-4-methylpentan-2-yl]-1,4-dihydro-1,8-naphthyridine-3-carboxamide]
15	100	–	CC(C)C[C@@H](NC(=O)c1cn(-c2ncc(F)cc2F)c2nc(N3C[C@@H](O)[C@H](O)C3)ccc2c1=O)C(F)(F)F [Example 81, 1-(3,5-Difluoropyridin-2-yl)-7-[(3R,4R)-3,4-dihydroxypyrrolidin-1-yl]-4-oxo-N-[(2R)-1,1,1-trifluoro-4-methylpentan-2-yl]-1,4-dihydro-1,8-naphthyridine-3-carboxamide]
145	97	–	CC[C@H](NC(=O)c1cn(-c2ncc(F)cc2F)c2nc(N3C(=O)C4(CC4)C(O)C3C)ccc2c1=O)C(F)(F)F (stereo partly drawn) [Example 113, 1-(3,5-Difluoropyridin-2-yl)-7-[7-hydroxy-6-methyl-4-oxo-5-azaspiro[2.4]hept-5-yl]-4-oxo-N-[(2S)-1,1,1-trifluorobutan-2-yl]-1,4-dihydro-1,8-naphthyridine-3-carboxamide]
160	100	–	O=C(NC(C1CC1)C(F)(F)F)c1cn(-c2ncc(F)cc2F)c2nc(N3C[C@@H](O)[C@H](O)C3)ccc2c1=O (stereo partly drawn) [Example 40, N-[1-Cyclopropyl-2,2,2-trifluoroethyl]-1-(3,5-difluoropyridin-2-yl)-7-[(3R,4R)-3,4-dihydroxypyrrolidin-1-y1]-4-oxo-1,4-dihydro-1,8-naphthyridine-3-carboxamide]
87	100	–	O=C(N[C@H](C1CC1)C(F)(F)F)c1cn(-c2ncc(F)cc2F)c2nc(N3CCNC3=O)ccc2c1=O [Example 65, N-[(1R)-1-Cyclopropyl-2,2,2-trifluoroethyl]-1-(3,5-difluoropyridin-2-yl)-4-oxo-7-(2-oxoimidazolidin-1-yl)-1,4-dihydro-1,8-naphthyridine-3-carboxamide]
